Target: T1, sGC α1/β1 heterodimer (Homo sapiens, UniProt Q02108+Q02153)
T1 construct: expressed in transfected cells; host or cells: CHO-K1 (clone #7, CHO-K1/sGC)
T1 sequence (Q02108 1-690): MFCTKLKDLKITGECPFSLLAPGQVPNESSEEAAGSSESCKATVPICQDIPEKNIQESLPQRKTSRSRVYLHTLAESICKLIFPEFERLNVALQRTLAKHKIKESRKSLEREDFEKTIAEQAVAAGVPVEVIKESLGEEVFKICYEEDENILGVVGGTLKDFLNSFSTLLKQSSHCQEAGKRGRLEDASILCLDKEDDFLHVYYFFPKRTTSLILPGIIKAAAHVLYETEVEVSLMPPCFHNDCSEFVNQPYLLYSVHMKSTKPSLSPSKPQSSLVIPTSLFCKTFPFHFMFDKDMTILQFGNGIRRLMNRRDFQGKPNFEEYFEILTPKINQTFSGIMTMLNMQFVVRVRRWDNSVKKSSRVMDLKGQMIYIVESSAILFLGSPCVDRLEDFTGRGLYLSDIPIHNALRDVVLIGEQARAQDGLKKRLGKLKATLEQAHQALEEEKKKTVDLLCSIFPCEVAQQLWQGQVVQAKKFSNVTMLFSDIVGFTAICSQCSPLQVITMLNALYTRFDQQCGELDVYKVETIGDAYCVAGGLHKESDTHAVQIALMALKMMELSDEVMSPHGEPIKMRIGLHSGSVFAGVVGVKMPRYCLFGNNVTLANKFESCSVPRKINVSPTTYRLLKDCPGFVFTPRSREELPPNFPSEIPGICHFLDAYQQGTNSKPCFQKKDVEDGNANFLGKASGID
T1 sequence (Q02153 1-619): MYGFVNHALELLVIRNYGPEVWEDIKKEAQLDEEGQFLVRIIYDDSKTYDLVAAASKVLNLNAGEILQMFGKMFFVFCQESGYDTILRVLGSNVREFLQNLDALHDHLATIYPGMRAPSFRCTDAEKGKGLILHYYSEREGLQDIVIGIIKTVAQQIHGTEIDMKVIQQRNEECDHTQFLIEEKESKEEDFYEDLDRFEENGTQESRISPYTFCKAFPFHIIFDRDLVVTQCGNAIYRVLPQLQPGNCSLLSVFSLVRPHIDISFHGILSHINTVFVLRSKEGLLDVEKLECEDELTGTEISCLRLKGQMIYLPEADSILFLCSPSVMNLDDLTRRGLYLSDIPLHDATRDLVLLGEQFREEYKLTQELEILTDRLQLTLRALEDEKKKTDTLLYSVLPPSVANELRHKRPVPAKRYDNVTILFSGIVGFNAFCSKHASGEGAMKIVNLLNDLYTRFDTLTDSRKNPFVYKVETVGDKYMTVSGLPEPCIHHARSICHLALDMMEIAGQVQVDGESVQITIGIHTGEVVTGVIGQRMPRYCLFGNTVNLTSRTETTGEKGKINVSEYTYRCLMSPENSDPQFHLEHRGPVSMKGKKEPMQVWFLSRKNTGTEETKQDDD
Test: Cell-based sGC functional assay (CASA assay): cGMP generation in CHO-K1/sGC cells, HTRF detection
Conditions: for Emax: CHO-K1, percent activation relative to standard Compound A in CHO-K1/sGC cells, read-out: % Act.; for EC50: inflection point (IP) of cGMP generation in CHO-K1/sGC cells, 4P fit, activity expressed as percentage of Compound A; for % Act.: percent activation relative to standard Compound A in CHO-K1/sGC cells
Description: Biological Assay 1: Cell-Based sGC Functional Assay (CASA Assay)
sGC is a heme-containing enzyme that converts GTP to secondary messenger cGMP. Increases in cGMP levels affect several physiological processes including vasorelaxation through multiple downstream pathways. […] Heme-dependent activators (HDAs) preferentially activate sGC containing a ferrous heme group. To determine the effect of sGC activators on enzyme activity, the CASA assay was developed to monitor the generation of cGMP in a cell line that stably expresses the heterodimeric sGC protein.
A CHO-K1 cell line stably expressing the sGC α1/β1 heterodimer was generated using a standard transfection protocol. CHO-K1 cells were transfected with plasmids pIREShyghsGCal and pIRESneo-hsGCβ1 simultaneously using FUGENE reagent. Clones that stably express both subunits were selected with hygromycin and neomycin for 2 weeks. Clone #7 was chosen for the assay and was designated CHO-K1/sGC. CHO-K1/sGC cells were maintained in F-K12 medium containing 10% heat-inactivated Fetal Bovine Serum (FBS), 100 μg/mL penicillin/streptomycin, 0.5 mg/mL hygromycin and 0.25 mg/mL G418. The cells were then cryopreserved in LN2. On the day of the assay, cells thawed and resuspended in EBSS Assay Buffer (Sigma, E3024) supplemented with 5 mM MgCl2, 10 mM HEPES (4-(2-hydroxyethyl)piperazine-1-ethanesulfonic acid) and 0.05% BSA (bovine serum albumin) (EAB) and cell density was then adjusted to 4×10^5/mL with EAR IBMX (3-isobutyl-1-methylxanthin, 0.5 mM) was added to inhibit degradation of cGMP. Compounds were diluted from DMSO stock solutions and added to the assay at a final DMSO concentration of 2.5%. Cells were incubated with compounds in the presence and absence of 1 μM of Diethylenetriamine/nitric oxide adduct (DETA-NO; Sigma, 17018) for 1 hr at 37° C. At the end of the incubation period, the reaction was terminated and the cells were lysed with the detection reagents from Cisbio Kits. The level of intracellular cGMP was determined using an HTRF-based assay kit (CisBio, 62GM2PEC), which detects the displacement of a fluorescence labeled cGMP from its specific antibody. The cGMP produced by test compounds was directly compared to the maximum cGMP production (this value was set to equal 100% activation.) of the published sGC-HDA Compound A:
[drawing 597] (Example 1 in WO 2010/065275, published Jun. 10, 2010). The test compounds' activities were then expressed as a percentage of Compound A, the standard in every experiment. This percent activation was calculated either in the presence or absence of DETA-NO which was then plotted. IP and maximum fold induction was derived using ADA analysis software for 4P fit.
The compounds in the Examples of the instant invention had inflection points (IP) less than or equal to 10 μM and more particularly less than or equal to about 1 μM.

| Compound | Emax [%] | EC50 [nM] | % Act. [%] |
| --- | --- | --- | --- |
| Cc1cc(Cl)cnc1C1(C2CC2)C(=O)Nc2nc(-c3cn4ccnc4c(CCCC(F)(F)F)n3)nc(N)c21 (single isomer, unassigned) [Example 364A, 4-amino-5-(5-chloro-3-methylpyridin-2-yl)-5-cyclopropyl-2-(8-(4,4,4-trifluorobutyl)imidazo[1,2-a]pyrazin-6-yl)-5H-pyrrolo[2,3-d]pyrimidin-6(7H)-one] | 138 | 273 | – |
| CC1(c2ccc(F)cc2)C(=O)Nc2nc(-c3cn4ccnc4c(CCC(F)(F)C(F)(F)F)n3)nc(N3CCC3)c21 (centres unmarked) [Example 306A, 4-(azetidin-1-yl)-5-(4-fluorophenyl)-5-methyl-2-(8-(3,3,4,4,4-pentafluorobutyl)imidazo[1,2-a]pyrazin-6-yl)-5H-pyrrolo[2,3-d]pyrimidin-6(7H)-one] | 108 | 108 | – |
| CC1(c2ccccn2)C(=O)Nc2nc(-c3cn4ccnc4c(Cc4ccc(F)cc4)n3)nc(N)c21 (centres unmarked) [Example 103B, 4-amino-2-(8-(4-fluorobenzyl)imidazo[1,2-a]pyrazin-6-yl)-5-methyl-5-(pyridin-2-yl)-5H-pyrrolo[2,3-d]pyrimidin-6(7H)-one] | 85 | 18 | – |
| CCC1(C2CC2)C(=O)Nc2nc(-c3cn4ccnc4c(Cc4ccccc4)n3)nc(N)c21 (single isomer, unassigned) [Example 77B, 4-amino-2-(8-benzylimidazo[1,2-a]pyrazin-6-yl)-5-cyclopropyl-5-ethyl-5H-pyrrolo[2,3-d]pyrimidin-6(7H)-one] | – | 30 | 176 |
| CC1(c2ccc(Cl)cc2)C(=O)Nc2nc(-c3cn4ccnc4cn3)nc(NCC(F)(F)F)c21 (centres unmarked) [Example 288A, 5-(4-chlorophenyl)-2-(imidazo[1,2-a]pyrazin-6-yl)-5-methyl-4-((2,2,2-trifluoroethyl)amino)-5H-pyrrolo[2,3-d]pyrimidin-6(7H)-one] | 119 | 12 | – |
| CCC(CC)Cc1nc(-c2nc(N)c3c(n2)NC(=O)C3(C)c2ccc(Cl)cc2)cn2ccnc12 (centres unmarked) [Example 9A, 4-amino-5-(4-chlorophenyl)-2-(8-(2-ethylbutyl)imidazo[1,2-a]pyrazin-6-yl)-5-methyl-5H-pyrrolo[2,3-d]pyrimidin-6(7H)-one] | 134 | 60 | – |
| Nc1nc(-c2cn3ccnc3c(CCC(F)(F)C(F)(F)F)n2)nc2c1C(c1nnc(C3CC3)o1)(C1CC1)C(=O)N2 (centres unmarked) [Example 56B, 4-amino-5-cyclopropyl-5-(5-cyclopropyl-1,3,4-oxadiazol-2-yl)-2-(8-(3,3,4,4,4-pentafluorobutyl)imidazo[1,2-a]pyrazin-6-yl)-5H-pyrrolo[2,3-d]pyrimidin-6(7H)-one] | 89 | 772 | – |
| CC1(c2ccc(F)cc2)C(=O)Nc2nc(-c3cn4cc(C(F)(F)F)nc4c(Cc4cccc(F)c4F)n3)nc(N)c21 (centres unmarked) [Example 148A, 4-amino-2-(8-(2,3-difluorobenzyl)-2-(trifluoromethyl)imidazo[1,2-a]pyrazin-6-yl)-5-(4-fluorophenyl)-5-methyl-5H-pyrrolo[2,3-d]pyrimidin-6(7H)-one] | 148 | 24 | – |
| CC1(c2ccc(F)cn2)C(=O)Nc2nc(-c3cn4ccnc4c(CCC(F)(F)C(F)(F)F)n3)nc(N3CCOCC3)c21 (centres unmarked) [Example 294B, 5-(5-fluoropyridin-2-yl)-5-methyl-4-morpholino-2-(8-(3,3,4,4,4-pentafluorobutyl)imidazo[1,2-a]pyrazin-6-yl)-5H-pyrrolo[2,3-d]pyrimidin-6(7H)-one] | 89 | 444 | – |
| CC(C)Cc1nc(-c2nc(N)c3c(n2)NC(=O)C3(C)c2ccc(F)cn2)cn2ccnc12 (centres unmarked) [Example 23B, 4-amino-5-(5-fluoropyridin-2-yl)-2-(8-isobutylimidazo[1,2-a]pyrazin-6-yl)-5-methyl-5H-pyrrolo[2,3-d]pyrimidin-6(7H)-one] | 96 | 257 | – |
| CC1(C(=O)NC2CC2)C(=O)Nc2nc(-c3cn4ccnc4c(Cc4cccc(F)c4)n3)nc(N)c21 (single isomer, unassigned) [Example 36A, 4-amino-N-cyclopropyl-2-(8-(3-fluorobenzyl)imidazo[1,2-a]pyrazin-6-yl)-5-methyl-6-oxo-6,7-dihydro-5H-pyrrolo[2,3-d]pyrimidine-5-carboxamide] | – | 304 | 151 |
| CCOc1ccc(C2(C)C(=O)Nc3nc(-c4cn5ccnc5c(CCC(F)(F)C(F)(F)F)n4)nc(N)c32)nc1 (centres unmarked) [Example 224A, 4-amino-5-(5-ethoxypyridin-2-yl)-5-methyl-2-(8-(3,3,4,4,4-pentafluorobutyl)imidazo [1,2-a]pyrazin-6-yl)-5H-pyrrolo[2,3-d]pyrimidin-6(7H)-one] | 77 | 153 | – |
| CC1(c2ccc(F)cc2)C(=O)Nc2nc(-c3cn4c(Cc5ccccc5)cnc4c(CCC(F)(F)C(F)(F)F)n3)nc(N)c21 (centres unmarked) [Example 260A, 4-Amino-2-(3-benzyl-8-(3,3,4,4,4-pentafluorobutyl)imidazo[1,2-a]pyrazin-6-yl)-5-(4-fluorophenyl)-5-methyl-5H-pyrrolo[2,3-d]pyrimidin-6(7H)-one] | 90 | 504 | – |
| COCCNc1nc(-c2cn3ccnc3c(CCC(F)(F)C(F)(F)F)n2)nc2c1C(C)(c1ccc(F)cc1)C(=O)N2 (centres unmarked) [Example 309A, 5-(4-fluorophenyl)-4-((2-methoxyethyl)amino)-5-methyl-2-(8-(3,3,4,4,4-pentafluorobutyl)imidazo[1,2-a]pyrazin-6-yl)-5H-pyrrolo[2,3-d]pyrimidin-6(7H)-one] | 97 | 39 | – |
| CC(C)Cc1nc(-c2nc(N)c3c(n2)NC(=O)C3(C)c2ccc(OC(F)(F)F)cc2)cn2ccnc12 (centres unmarked) [Example 25A, 4-amino-2-(8-isobutylimidazo[1,2-a]pyrazin-6-yl)-5-methyl-5-(4-(trifluoromethoxy)phenyl)-5H-pyrrolo[2,3-d]pyrimidin-6(7H)-one] | 87 | 324 | – |
| CC1(c2ccc(Cl)cc2)C(=O)Nc2nc(-c3cn4ccnc4cn3)nc(N3CC(F)(F)C3)c21 (single isomer, unassigned) [Example 277A] | 106 | 469 | – |

— US9796733B2, “Imidazo-pyrazine derivatives useful as soluble guanylate cyclase activators” (Merck Sharp & Dohme Corp., priority 2014, dated 2017)
